Experimental data as given in patent publication US4045564A, “Benzimidazole derivatives useful as gastric acid secretion inhibitors” (AB Hassle, priority 1974, dated 1977).

What was measured:
[1] = system: pentagastrin induced gastric acid secretion; test: Inhibition of pentagastrin induced gastric acid secretion in acute dog experiments with a modified perfusion technique (anaesthetized dog); assay type: in vivo; conditions: 10 mg/kg body weight, given into the duodenum in 0.5% Methocel suspension, pentagastrin 1-2 μg/kg
Description: The testing was performed in acute dog experiments with a modified perfusion technique.
The stomach of the anaesthetized dog was provided with one tube through the oesophagus for instillation of fluid and another tube via the ligated pylorus through duodenum for drainage of fluid. Saline was instilled in a volume of 5 ml/kg body weight, and the instillation fluid was changed every 15 minutes.
The samples collected were titrated to pH 7.0 with 0.04 N NaOH using a Radiometer automatic titrator, and the acid output per 15 minutes was calculated (collection periods).
Gastric acid secretion was induced by pentagastrin in 1-2 μg/kg.
The amount of active agent administered was 10 mg/kg body weight.

[2] = system: gastric acid secretion induced with pentagastrin; test: Duration of the effect in conscious dog provided with a ventricel fistula, gastric acid secretion induced with pentagastrin; assay type: in vivo
Description: The compounds of Examples 1, 3, and 9 have also been tested with regard to the duration of the effect obtained in conscious dog provided with a ventricel fistula, the gastric acid secretion being induced with pentagastrin. The amount of gastric acid secreted before the administration of active agent was determined using a titrator, whereupon the gastric acid secretion was determined using a titrator after administration. In the table below the inhibition in % of basic secretion has been given for two different dose levels.

Compound | % inhibition of the pentagastrin induced gastric acid secretion [1] | % inhibition of gastric acid secretion ([2]; 1 mg/kg, 1 hr) | % inhibition of gastric acid secretion ([2]; 1 mg/kg, 2 hrs) | % inhibition of gastric acid secretion ([2]; 1 mg/kg, 3 hrs) | % inhibition of gastric acid secretion ([2]; 2 mg/kg, 1 hr) | % inhibition of gastric acid secretion ([2]; 2 mg/kg, 2 hrs) | % inhibition of gastric acid secretion ([2]; 2 mg/kg, 3 hrs)
Cc1cccc2[nH]c(SCc3ccccn3)nc12 [Example 1, [2-pyridylmethylthio]-4-methyl-2-benzimidazole] | 89% | 20% | 25% | 25% | 50% | 60% | 65%
CCc1ccc2nc(SCc3ccccn3)[nH]c2c1 [Example 3, 2-[2-pyridylmethylthio]-(5-ethyl)-benzimidazole] | 86% | 20% | 25% | 25% | 50% | 60% | 65%
COc1ccc2[nH]c(SCc3ccccn3)nc2c1 [Example 5] | 40% |  |  |  |  |  | 
CCOC(=O)c1ccc2[nH]c(SCc3ccccn3)nc2c1 [Example 9] | 70% | 20% | 25% | 25% | 50% | 60% | 65%
CC(=O)n1c(SCc2ccccn2)nc2ccccc21 [Example 16, 2-[2-pyridylmethylthio]-N-acetylbenzimidazole] | 80% |  |  |  |  |  | 
COC(=O)n1c(SCc2ccccn2)nc2ccccc21 [Example 17, 2-[2-pyridylmethylthio]-N-methoxycarbonylbenzimidazole] | 76% |  |  |  |  |  | 
